Consider 16 compounds from patent US20040198821A1, “Reduction of hair growth” (priority 2002, published 2004).

Molecules are shown by their SMILES.

The subject of assay [1] is hamster flank organ hair growth (hair mass). The experiment in a line: Golden Syrian hamster assay (hair mass assay). The note with it: for % Inhibition of hamster hair mass / Treated (mg) hair mass: three weeks. The assay is classed as in vivo. From the text:
Golden Syrian Hamster Assay
Male intact Golden Syrian hamsters are considered acceptable models for human beard hair growth in that they display oval shaped flank organs, one on each side, each about 8 mm. in major diameter. These organs produce fine light colored hair typical of the animal pelage found on the body. In response to androgens the flank organs produce dark coarse hair similar to male human beard hair. To evaluate the effectiveness of a composition in reducing hair growth, the flank organs of each of a group of hamsters are depilated by applying a thioglycolate based chemical depilatory (Surgex) and/or shaved. To one organ of each animal 10 μl. of vehicle alone once a day is applied, while to the other organ of each animal an equal amount of vehicle containing the compound under evaluation is applied. After three weeks of topical applications (one application per day for five days a week), the flank organs are shaved and the amount of recovered hair (hair mass) from each is weighed. Percent-reduction of hair growth is calculated by subtracting the hair mass (mg) value of the test compound treated side from the hair mass value of the vehicle treated side; the delta value obtained is then divided by the hair mass value of the vehicle treated side, and the resultant number is multiplied by 100.
The above-described assay will be referred to herein as the “Golden Syrian hamster” assay or “hair mass” assay. Preferred compositions provide a reduction in hair growth of at least about 15% and more preferably at least about 35%, when tested in the Golden Syrian hamster assay.

Assay [2] has as its system Carnitine palmitoyltransferase I (CPT I). Put plainly: Assay of carnitine palmitoyl transferase-I (CPT-I), Method-I. It is filed as biochemical. The note with it: inhibitor 5 mM, hamster flank organ hair follicle fraction. The protocol: Assay of Carnitine Palmitoyl Transferase-I (CPT-I)
Two different enzyme assays were used to quantify the activity of CPT-I in hair follicles:
Hair follicle rich fraction from hamster flank organs are homogenized in Buffer A (200 mM mannitol, 10 mM sucrose, 5 mM MOPS pH 7.4). The homogenate is centrifuged at 2000 rpm for 10 minutes. The supernatant is removed and centrifuged at 7000 rpm for 30 minutes. The pellet is resuspended in Buffer B (20 mM Tris-HCl, pH 7.4), 400 mM sucrose, 80 mM KCl, 2 mM EDTA, 2.6 mg/ml fatty acid free BSA). 30 μl of the resuspended pellet is added to 35 μl of DMSO or one of the inhibitors diluted in DMSO so that the final concentration is 5 mM. After a 15 min preincubation, the following are added; 35 μl of 1.7 mM palmitoyl Co-A (34% water and 66% Buffer B), 10 μl of 5 mM L-carnitine (in buffer B with 0.5 μCi ^3H-carnitine). The reaction is then placed in a 37° C. water bath for 30 minutes. At the end of 30 minutes the reaction is stopped by the addition of 150 μl cold 1N HCl. This is followed by the addition of 250μl water to each sample. Butanol (500 μl) is then added to each sample and the samples are centrifuged for 2 minutes at 10,000×g. 300 μl of the butanol layer is transferred to a new centrifuge tube and 250 μl of water is added. 200 μl of the organic phase is added to a scintillation vial containing 12 ml of scintillation cocktail. The radioactivity is determined using a scintillation counter.

The test system of another assay is human hair follicles. The experiment in a line: Human hair follicle growth assay. It is filed as cell-based. From the text:
Human Hair Follicle Growth Assay
Tissue source—Human skin was obtained from a plastic surgeon as a by-product of face-lift procedures. Immediately after removal, the skin was placed in Williams E medium containing antibiotics and refrigerated. The Williams E medium is a commercially obtained medium which has been formulated with essential nutrients for maintaining viability of tissues or cells such as of hair follicle in an in-vitro environment.
Hair Follicle Isolation and Culture—Human hair follicles in growth phase (anagen) were isolated from face-lift tissue under a dissecting scope using a scalpel and watchmakers forceps. The skin was sliced into thin strips exposing 2-3 rows of follicles that could readily be dissected. Follicles were placed into 0.5 ml Williams E medium supplemented with 2 mM L-glutamine, 10 μg/ml insulin, 100 ng/ml hydrocortisone, 100 units penicillin, 0.1 mg/ml streptomycin and 0.25 μg/ml amphotericin B. The follicles were incubated in 24 well plates (1 follicle/well) at 37° C. in an atmosphere of 5% CO2 and 95% air. Hair follicles were video recorded in the 24-well plates under the dissecting scope under a power of 10×. Typically, hair follicle lengths were measured on day 0 (day follicles were placed in culture) and again on day 7. When testing compounds, the compound was included in the culture medium from time 0 and remained in the medium throughout the course of the experiment. The length of hair follicles was assessed using an image analysis software system (Jasc Image Robot).

The test system of the next assay is 3-ketoacyl-CoA thiolase. The experiment in a line: Assay of 3-ketoacyl-CoA thiolase. It is filed as biochemical, hamster. The note with it: inhibitor 0.5 mM, mitochondria preincubated 5 min. The method, then: Assay of 3-Ketoacyl-CoA Thiolase:
Aliquots of the mitochondrial suspension (50 μl) were rapidly frozen in dry ice and stored at −80° C. until enzyme activities were assayed as described below. To insure the complete disruption of mitochondria, Triton X-100 (0.06%) was added to all assay mixtures. The activity of thiolase was determined by spectrophotometrically following the disappearance of the Mg^2+-enolate complex at 303 nm. The enzyme assay was performed at 25° C. The reaction mixture contained 0.1 M Tris-HCl (pH 8.2), 25 mM MgCl2, 30 mM KCl, 0.06% Triton X-100, bovine serum albumin (0.13 mg/ml), 70 μM CoA and 33 μM acetoacetyl-CoA. Molar extinction coefficient of […] was used to calculate the rates determined with acetoacetyl-CoA.

Assay [3] has as its system Carnitine palmitoyltransferase I (CPT I). The experiment in a line: Assay of carnitine palmitoyl transferase-I (CPT-I), Method II (isolated mitochondrial fraction). It is filed as biochemical, hamster. The note with it: inhibitor 1 mM. The method, then: The enzyme activity of carnitine palmitoyl transferase-I (CPT-I) was also determined in the isolated mitochondrial fraction. Isolation of mitochondria from the hair follicle rich fraction of flank organs was accomplished by conventional differential centriftigation in 0.25 M sucrose, 10 mM Tris-HCl, pH 7.4 and 1 mM EDTA after tissues were homogenized by polytron homogenizer and Dounce tissue grinder. The pellet obtained at 7000 g was washed two times and finally suspended at 40-80 mg/ml. Carnitine palmitoyltransferase was measured as the rate of conversion of palmitoyl-CoA and [^3H]CH3-L-carnitine into palmitoyl-[^3H]CH3-1-carnitine. The incubation mixture initially contained 12.5 μmol of Tris-HCl (pH 7.2), 15 μmol of KCl, 3.1 μmol of KCN, 6.2 μmol of glutathione, 15 nmol of CoA, […], 2 μmol of ATP (pH 6.8) in volume of 0.425 ml. To this mixture 50 μl of mitochondria were added, followed by preincubation at 37° C. for 10 minutes in the presence or absence of the enzyme inhibitor methyl palmoxirate (dissolved in DMSO). After preincubation, the enzyme reaction was initiated by the addition of 25 μl of 2 mM palmitoyl-CoA and 25 μl of 4 mM [^3H]CH3-L-carnitine. The reaction was stopped after 30 minutes with 1 ml 1N HCl and palmitoyl-[^3H]CH3-L-carnitine was extracted into n-butanol. The radioactivity was determined using scintillation spectrometry.

[4] abbreviates: 1 mM in culture medium, day 0 to day 7.

As for `CCCCCCCCCC(=O)OC(CC(=O)O)C[N+](C)(C)C.[Cl-]` (racemic) [DL-decanoylcarnitine chloride], in assay [1] (topical dose 10.0%, vehicle B), the “% Inhibition of hamster hair mass” value is 58 ± 5% and the “Treated (mg) hair mass” value is listed as 0.94 ± 0.12 mg.
Regarding `CCCCCCCCCCCCCCC(Br)C(=O)O` (centres unmarked) [2-bromopalmitic acid], in assay [2], the “% inhibition of CPT I” value stood at 91% and the “pmol product /mg protein (CPT I activity)” value (from here on “pmol product /mg protein”) is listed as 0.07 pmol product /mg protein.
Take `CCCC(CCC)C(=O)O` [2-propylpentanoic acid]: in assay [1] (topical dose 20.0%, vehicle A), the “% Inhibition of hamster hair mass” value is reported as 67 ± 3% and the “Treated (mg) hair mass” value is given as 2.68 ± 0.20 mg.
As for `O=C(O)/C=C/CBr` [4-bromocrotonic acid], in assay [1] (topical dose 3.0%, vehicle B), the “% Inhibition of hamster hair mass” value worked out at 37 ± 14% and the “Treated (mg) hair mass” value came out at 1.25 ± 0.37 mg. Also, the “Hair follicle length increase (mm)” value with human hair follicles (0.03 mM in culture medium, day 0 to day 7) was 0.06 ± 0.06 mm. In the assay on human hair follicles (Homo sapiens, 0.03 mM in culture medium, day 0 to day 7), this compound yielded an inhibition at 30 µM of 95 ± 5%. In the assay on 3-ketoacyl-CoA thiolase, the “% inhibition of 3-ketoacyl-CoA thiolase” value is listed as 85.2% and the “nmol product/mg protein (3-ketoacyl-CoA thiolase activity)” value is 0.128 nmol product/mg protein.
As to `C=CCCC(=O)O` [4-pentenoic acid], in assay [1] (topical dose 10.0%, vehicle A), the “% Inhibition of hamster hair mass” value is 46 ± 8% and the “Treated (mg) hair mass” value turned out to be 1.10 ± 0.12 mg.
`CC(C)(C)c1ccc(C(=O)O)cc1` [4-tert-butylbenzoic acid]: in assay [1] (topical dose 10.0%, vehicle C), the “% Inhibition of hamster hair mass” value came out at 46 ± 8% and the “Treated (mg) hair mass” value amounted to 1.10 ± 0.12 mg.
Consider `CCCCc1oc2ccccc2c1C(=O)c1cc(I)c(OCCN(CC)CC)c(I)c1` [amiodarone], for which, in assay [1] (topical dose 7.5%, vehicle A), the “% Inhibition of hamster hair mass” value is listed as 44 ± 28% and the “Treated (mg) hair mass” value amounted to 1.62 ± 0.9 mg.
As to `C/C=C/C/C=C/CCC(=O)[C@H]1O[C@H]1C(N)=O` [cerulenin], the “Hair follicle length increase (mm)” value in the assay on human hair follicles (10 μM in culture medium, day 0 to day 7) came out at 0.06 ± 0.05 mm. Besides, in the assay with human hair follicles (Homo sapiens, 10 μM in culture medium, day 0 to day 7), at 10 µM the inhibition was 93.7 ± 5.6%. Also, the “inhibition of human hair follicle growth in vitro (in words)” value in the assay on human hair follicles (text summary of Table VII) is reported as “can inhibit human hair follicle growth in vitro with marked efficacy”.
`COc1ccc(Cl)cc1C(=O)NCCc1ccc(S(=O)(=O)NC(=O)NC2CCCCC2)cc1` [glynbenclamide]: in assay [1] (topical dose 10.0%, vehicle D), the “% Inhibition of hamster hair mass” value is on record as 32 ± 8% and the “Treated (mg) hair mass” value came to 1.40 ± 0.32 mg. Further, in assay [2], the “% inhibition of CPT I” value is 100% and the “pmol product /mg protein” value turned out to be 0.00 pmol product /mg protein.
Regarding `CC(C)(COP(=O)(O)OP(=O)(O)OC[C@H]1O[C@@H](n2cnc3c(N)ncnc32)[C@H](O)[C@@H]1OP(=O)(O)O)[C@@H](O)C(=O)NCCC(=O)NCCSC(=O)CC(=O)O` [malonyl CoA], in assay [2], the “% inhibition of CPT I” value is reported as 22% and the “pmol product /mg protein” value is on record as 0.59 pmol product /mg protein.
Regarding `CCCCCCCCCCCCCCC1(C(=O)OC)CO1` (centres unmarked) [methyl palmoxirate, methyl-2-tetradecylglycidate], in assay [1] (topical dose 2.0%, vehicle B), the “% Inhibition of hamster hair mass” value was determined as 66 ± 4% and the “Treated (mg) hair mass” value is listed as 0.56 ± 0.12 mg. For the same compound, the “Hair follicle length increase (mm)” value with human hair follicles (0.1 mM in culture medium, day 0 to day 7) was determined as 0.54 ± 0.3 mm. In addition, the inhibition at 100 µM in the assay on human hair follicles (Homo sapiens, 0.1 mM in culture medium, day 0 to day 7) turned out to be 57 ± 24%.
For `CCCCCCCCC1=C(CCCCCCCC(=O)OC)C1` [methyl sterculate], the “reduction of hair growth in vivo (in words)” value in assay [1] (text summary of Table VIII) is “can reduce hair growth both in vivo and in vitro”. In addition, in assay [1] (topical dose 2.5%, vehicle E), the “% Inhibition of hamster hair mass” value was found to be 45.1 ± 6.8% and the “Treated (mg) hair mass” value turned out to be 1.4 ± 0.2 mg. Also, in the assay on human hair follicles (setting [4]), the “% Inhibition of human hair follicle growth” value was determined as 59.3 ± 0.2% and the “Hair follicle length increase (mm)” value turned out to be 0.59 ± 0.29 mm. Moreover, the “reduction of hair growth in vitro (in words)” value in the assay on human hair follicles (text summary of Table IX) was “can reduce hair growth both in vivo and in vitro”.
With `N[C@H](C(=O)O)c1ccc(O)cc1` [oxfenicine], in assay [3], the “% inhibition of CPT I” value was 44% and the “pmol product /mg protein” value is 0.64 pmol product/mg protein.
`CCCCCCCCCCCCCCCC(=O)OC(CC(=O)[O-])C[N+](C)(C)C` (stereo not drawn) [palmitoyl DL carnitine]: in assay [1] (topical dose 10.0%, vehicle A), the “% Inhibition of hamster hair mass” value is given as 73 ± 15% and the “Treated (mg) hair mass” value is listed as 0.29 ± 0.1 mg.
Consider `C1CCC(C(CC2CCCCN2)C2CCCCC2)CC1` (centres unmarked) [perhexiline], for which, in assay [1] (topical dose 2.5%, vehicle B), the “% Inhibition of hamster hair mass” value is listed as 23 ± 25% and the “Treated (mg) hair mass” value is 2.28 ± 0.77 mg. Besides, in assay [2], the “% inhibition of CPT I” value is listed as 86% and the “pmol product /mg protein” value is recorded as 0.10 pmol product /mg protein.
Consider `CCCCNC(=O)NS(=O)(=O)c1ccc(C)cc1` [tolbutamide], for which, in assay [2], the “% inhibition of CPT I” value is 90% and the “pmol product /mg protein” value amounted to 0.07 pmol product /mg protein.
